{"source": "patent US12279616B2", "about": "“Stabilization of dimpropyridaz suspensions by triethylammonium chloride” (BASF SE, priority 2019, dated 2025)", "experiment": "Water-solubility of dimpropyridaz", "format": "physicochemical", "conditions": "printed as at 20° C. ... at 25° C.", "protocol": "Dimpropyridaz is a pesticide that has a water-solubility at 20° C. of approximately 4-5 wt % at 25° C. The water-solubility of dimpropyridaz is comparably high and so Ostwald-ripening represents a crucial issue for Dimpropyridaz suspension concentrates."}
{"smiles": "CCN(C(=O)c1cnn(C(C)C(C)C)c1C)c1ccnnc1", "note": "(racemic) [Dimpropyridaz, 1-[1,2-dimethylpropyl]-N-ethyl-5-methyl-N-pyridazin-4-yl-1H-pyrazole-4-carboxamide]", "values": [{"measurement": "water-solubility", "value": "4-5 wt %"}]}
